The values below come from ChEMBL document CHEMBL5385920, “Discovery of P450-Modified Sesquiterpenoids Levinoids A-D through Global Genome Mining” (J Nat Prod, 2024).

Calls of active or inactive are those of the source. The calls are words filed in the database; no cut-off is given here.

As usually defined, the EC50 is the concentration at which the effect is half-maximal.

The test system of test [1] is HT-22. Briefly: Neuroprotective activity against glutamate-induced cytotoxicity in HT-22 cells assessed as increase in cell viability at 10 ug/ml measured after 24 hrs in presence of glutamate by CCK8 assay. The format is functional, cell-based. To be noted: Mus musculus, dose 10.0 µg/ml. Background: Formazan colour is commonly taken as a measure of viable cells.
Test [2] has as its system HT-22. The test is described as follows: Neuroprotective activity against glutamate-induced cytotoxicity in HT-22 cells assessed as increase in cell viability at 10 ug/ml measured after 24 hrs in presence of glutamate by CCK8 assay relative to control. Type of test: functional, Mus musculus. To be noted: dose 10 µg/ml.
Test [3] concerns HT-22. Briefly: Neuroprotective activity against glutamate-induced cytotoxicity in HT-22 cells assessed as increase in cell viability measured after 24 hrs in presence of glutamate by CCK8 assay. The format is functional, cell-based. As to conditions: Mus musculus, HT-22, 24 h.

For `CC1=CC[C@@H](C(C)C)[C@H]2C=C(C(=O)O)CC[C@@H]12`, the result in the test on HT-22 [1] was inactive.

In the case of `CC1=CC[C@@H](C(C)C)[C@H]2C=C(C(=O)O)[C@@H](O)C[C@@H]12`, the result in the test on HT-22 [1] was inactive.

Regarding `CC1=CC[C@@H](C(C)C)[C@@]2(O)C=C(C(=O)O)CC[C@@H]12`, in the test with HT-22 [1], the result was inactive.

`CC1=CC[C@@H](C(C)C)[C@H]2C=C(C(=O)O)CC[C@@]12O`: in the test with HT-22 [2], the Activity is on record as 82%. For the same molecule, the 50% effective concentration (EC50) in the test with HT-22 [3] was around 21 µM.
